Calls of active or inactive are those of the source.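 The calls were made as follows: active = plate Z score at or below -3, or inhibition of at least 30% at 20 µM; inactive = the rest.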
Test: compounds lowering EGFP fluorescence in F442A cells, dose response, counter-screen for p/CIP destabilizer project (AID 2005);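 also: cells express EGFP alone from a CMV promoter as a counter screen for p/CIP-EGFP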
Settings: F442A EGFP cells, EGFP fluorescence, 16 h, stronger effect = higher value

| SMILES | inhibition (EGFP decrease, at 10 µM) | inhibition (at 20 µM) |
| --- | --- | --- |
| Cn1c(O)c(C=NC2CCCCCC2)c(=O)[nH]c1=S | 0.3% | 7.6% (inactive) |
| O=C(CNC(=O)c1ccco1)NCC(=O)OCc1ccc(Cl)cc1Cl | -15.3% | 6% (inactive) |
| CCCC(=O)C1=C(N(C)c2ccccc2)CC(C)(C)CC1=O | 24.9% | 21.6% (inactive) |
| O=C(Cc1ccccc1)NC(=S)Nc1cccc(C(F)(F)F)c1 | 14.2% | 16.8% (inactive) |
| COc1ccc(-c2cc(C(F)(F)F)nc(N3CCN(C)CC3)n2)cc1OC | 8.9% | 8% (inactive) |
| COc1cccc(/C=N/n2c(C3CCCCC3)n[nH]c2=S)c1O | 1.4% | 27.7% (inactive) |
| CCCCCCn1c(=O)c(C(=O)Nc2cccc(C)n2)c(O)c2ccccc21 | 26.7% | 20.6% (inactive) |
| COCC(=O)N1CCCN(c2nc3c(C)cccc3cc2C#N)CC1 | 7.6% | -0.8% (inactive) |
| COc1ccccc1CNC(=O)CCCC(=O)n1ncc2cc(C)ccc21 | -25.7% | 20.2% (inactive) |
| COc1ccccc1N1CCN(CC(O)COCc2cccs2)CC1 (configuration not stated) | 16.3% | 8% (inactive) |
| Cc1ccc(-c2nc(CS(=O)CC(=O)NC3CCC(C)CC3)c(C)o2)cc1 (configuration not stated) | 27.4% | -4.5% (inactive) |
| O=C(Nc1ccc(F)cc1)Nc1nnc(-c2ccco2)s1 | 12% | -2.8% (inactive) |
| O=C(COc1ccc(F)cc1)Nc1nc2c(s1)CCCC2 | 26.7% | 24% (inactive) |
| COc1ccccc1OCc1ccc(C(=O)n2nc(C)c(Cl)c2C)o1 | -1.3% | 2.6% (inactive) |
| CCC1=C(OC(=O)N(CC)CC)N2C(=O)OC(=NCC(=O)OC)[C@]2(Cc2ccccc2)[C@H]2C1=CC[C@H]1C(=O)N(c3ccccc3)C(=O)[C@H]12 | 8.2% | 2% (inactive) |
| Cc1cccc(C)c1NC(=O)c1ccccc1C(=O)O | 18.1% | 20.4% (inactive) |
| CC(C)c1csc(CN2CCCC(CNC(=O)c3cccc4ccccc34)C2)n1 (configuration not stated) | 15% | 4.5% (inactive) |
| CCN(CC(=O)N1CCOCC1)S(=O)(=O)c1ccccc1 | 7.2% | -27.6% (inactive) |
| S=c1[nH]nc(COc2ccccc2)n1/N=C/c1ccc(Cl)cc1Cl | 13.4% | 9.7% (inactive) |
| O=C(CN1CCC(n2nnc3cc(F)ccc32)CC1)NC1CC1 | -7.1% | -1.4% (inactive) |
| Cc1ccc(S(=O)(=O)CCSc2nc(C)cc(C(F)(F)F)c2C#N)cc1 | -55.8% | -128% (inactive) |
| O=C(O)c1cccc(NC(=O)C2C3C=CC(C3)C2C(=O)O)c1 (configuration not stated) | 17.4% | 18% (inactive) |
| CCN(C(=O)COC(=O)c1cc(NS(=O)(=O)c2ccc(Cl)c([N+](=O)[O-])c2)ccc1O)C1CCCCC1 | 13.6% | 6.6% (inactive) |
| O=C(N/N=C\c1ccc2c(c1)OCO2)c1cncc(Br)c1 | 6.5% | 7.3% (inactive) |
| O=C1C(=O)c2ccc(-c3ccccc3)cc2-c2ccccc21 | -14.4% | 2.4% (inactive) |
| COc1cc(OC)cc(C(=O)NCC(=O)OCC(=O)N2CCc3ccccc32)c1 | 8.9% | 20.7% (inactive) |

| SMILES | inhibition (EGFP decrease, at 10 µM) | inhibition (at 20 µM) |
| --- | --- | --- |
| O=C(O)C1=C[C@H](c2cccs2)C[C@H](OCc2ccc(CO)cc2)O1 | 3.6% | -7.3% (inactive) |
| COc1cc2c(cc1OC)/C(=C/C#N)NC(C)(C)C2 | 6.8% | 8% (inactive) |
| CS(=O)(=O)N(CC(=O)N1CCN(Cc2ccc3c(c2)OCO3)CC1)c1ccc2c(c1)OCO2 | 15.1% | -15.1% (inactive) |
| Cc1ccsc1/C=N\NC(=O)CCc1c(C)n[nH]c1C | 4% | -13.2% (inactive) |
| Cc1ccc(NC(=S)Nc2cccc3cnccc23)cc1 | 2.1% | 26.8% (inactive) |
| CC(=O)N1CCN(C(=O)CCCNC(=O)c2ccc(Cl)cc2)CC1 | 21% | -1.6% (inactive) |
| O=C(NC1=NCCS1)c1ccc(N2CCCC2=O)cc1 | -10.3% | -1.1% (inactive) |
| CCOc1ccc(C(=O)N2CCc3cc(OC)c(OC)cc3C2)cc1OCC | 9.7% | 4.7% (inactive) |
| Cc1sc2nc(COC(=O)c3ccc(N4CCCC(C)C4)c([N+](=O)[O-])c3)[nH]c(=O)c2c1C (configuration not stated) | 26.5% | 11.2% (inactive) |
| Cc1cccc2cc(CN(Cc3ccc(F)cc3)Cc3nnnn3C3CCCC3)c(=O)[nH]c12 | 13.4% | 6.5% (inactive) |
| O=C(Nc1ccc(N2CCOCC2)cc1N1CCOCC1)c1ccc(Br)cc1 | 32.7% | 19.4% (inactive) |
| CCC1=C(OC(=O)N(CC)CC)N2C(=O)OC(=NCC3CC3)[C@]2(Cc2ccccc2)[C@H]2C1=CC[C@H]1C(=O)N(CC(=O)OC)C(=O)[C@H]12 | 0.3% | 13.8% (inactive) |
| O=C(Nc1nc2nc(-c3ccccc3)cc(-c3ccccc3)n2n1)c1ccco1 | 4.8% | 5.5% (inactive) |
| COc1ccccc1C(=O)NC(CCSC)C(=O)NC1CCCCCC1 (configuration not stated) | 17.2% | 29.7% (inactive) |
| COc1ccc(N2CCN(C(=O)CNS(=O)(=O)c3ccc(Br)s3)CC2)cc1 | 31% | 28.5% (inactive) |
| Cn1c(NC(=O)c2cccnc2)nc2ccccc21 | -33.6% | -0.5% (inactive) |
| Cc1nc(-c2ccc(C(=O)Nc3cccc(F)c3)cc2)cs1 | 30.7% | 32.8% |
| Cc1nn(CC(=O)NCCN2CCCCC2C)c(=O)c2cc(-c3ccccc3)nn12 (configuration not stated) | 17.6% | 1.6% (inactive) |
| CC(=O)c1c(N2CCN(Cc3ccc4c(c3)OCO4)CC2)nc(=S)n(-c2ccccc2)c1C | 7.3% | 23.7% (inactive) |
| O=C(CSc1nnc(-c2ccccc2F)o1)OCc1ccccc1 | 15.7% | 39% |
| COc1ccc(OC)c(Nc2ncnc3c2cnn3-c2ccccc2)c1 | 17.8% | 9.9% (inactive) |
| CCOC(=O)C1=C(N)Oc2cc(C)oc(=O)c2C12C(=O)N1c3c(cc(OC)cc32)C(C)=CC1(C)C (configuration not stated) | -0.3% | 5.1% (inactive) |
| COc1ccc(OC)c(NS(=O)(=O)c2c(C(=O)N3CCCCCC3)c(C)n(C)c2C)c1 | 32.8% | 15.9% (inactive) |
| O=C(NNS(=O)(=O)c1ccc(F)cc1)C1CCN(S(=O)(=O)c2ccccc2)CC1 | -22.3% | -6.1% (inactive) |
| Cc1cccc(N(CC(=O)NCCc2ccccc2)C(=O)c2csnn2)c1 | 4.8% | 17.2% (inactive) |
| Cc1onc(-c2ccccc2Cl)c1C(=O)NCc1cccnc1 | 22.1% | 15.9% (inactive) |

| SMILES | inhibition (EGFP decrease, at 10 µM) | inhibition (at 20 µM) |
| --- | --- | --- |
| Cc1ccc(S(=O)(=O)Nc2cccc(-c3cn4ccsc4n3)c2)cc1 | 31% | 10.2% (inactive) |
| O=C(NC(=S)NCCc1ccccc1)c1ccco1 | 9.7% | -5.7% (inactive) |
| COc1ccc(N2CCN(C(=O)c3cn(C)c(=O)c4c3c3ccccc3n4C)CC2)cc1 | 6.2% | 20.1% (inactive) |
| NC(=O)c1nsc(C(=O)N(CC(=O)NC2CCCC2)c2ccc(F)c(Cl)c2)c1N | -4.6% | 15.2% (inactive) |
| CCOC(=O)N1CCN(c2ccc(C(C)=O)cc2F)CC1 | 10.1% | -6.2% (inactive) |
| Cc1ccc(CN(Cc2ccccc2)C(=S)NCC(=O)NCc2cccnc2)o1 | 5.8% | 6.9% (inactive) |
| CC(C)OP(=O)(O)NC(=O)c1ccccc1 | 3.6% | 18.5% (inactive) |
| Cc1ccc(-n2ncc(Br)c(Br)c2=O)cc1 | 9.4% | -1.3% (inactive) |
| Cc1ccc(CNC(=O)C2CCCCN2S(=O)(=O)c2ccccc2)cc1 (configuration not stated) | -17.4% | 4.6% (inactive) |
| CC(C)c1ccc(NC(=S)NN2C(C)CCCC2C)cc1 (configuration not stated) | 8.5% | 0.8% (inactive) |
| COc1cccc(NC(=O)N2CCC(NC(=O)C3CCCCC3)CC2)c1 | 13.5% | 8% (inactive) |
| COc1cccc2cc(C(C)=O)c(=O)oc12 | 33.2% | 24.2% (inactive) |
| CC1=C(C(=O)OCc2ccccc2)C(c2ccc(C(F)(F)F)cc2)NC(=O)N1CCCCCC(=O)O (configuration not stated) | -4.3% | -6% (inactive) |
| O=C(Oc1ccccc1-c1nnco1)c1ccccc1 | 31% | -29.2% (inactive) |
| Nc1ccc(C(=O)N2N=C(c3ccccc3)CC2(O)C(F)(F)F)cc1 (configuration not stated) | 28.6% | 4.3% (inactive) |
| O=C(CS(=O)CC(=O)Nc1ccccc1-c1ccccc1)Nc1ccc(F)cc1 (configuration not stated) | -0.9% | 13.9% (inactive) |
| CN1CCn2c1nc(N1CCCCC1)nc2=O | 14.7% | 16.5% (inactive) |
| CC(=O)c1ccc(NC(=O)NNS(=O)(=O)c2ccc([N+](=O)[O-])cc2)cc1 | 16.8% | 22.1% (inactive) |
| COc1ccc([N+](=O)[O-])cc1NC(=O)c1cccs1 | 18.4% | 8.7% (inactive) |
| CC(NC(=O)c1c(F)cccc1Cl)c1ccc(-n2ccnc2)cc1 (configuration not stated) | 35.7% | 24.4% (inactive) |
| CCS(=O)(=O)N1CCN(c2nc(-c3ccccc3)cs2)CC1 | 13.7% | 15.1% (inactive) |
| C[C@H](NC(=O)OCc1ccccc1)c1nnc([C@H](C)NC(=O)OCc2ccccc2)o1 | -3.8% | -5.1% (inactive) |
| COc1ccc(-n2ncc3c(SCC(=O)N4CCN(c5ccccc5OC)CC4)ncnc32)cc1 | 17.1% | 9.4% (inactive) |
| CN=Cc1sc2ccccc2c1O | 26.9% | 29.7% (inactive) |

Source: PubChem BioAssay AID2005 (Sanford-Burnham Center for Chemical Genomics, 2009)
